# Test results published in ChEMBL document CHEMBL1201862, “PubChem BioAssay data set” (2004).
# Activity calls are given as the source filed them.
# Tests used:
# Streptococcus = experiment: GAS UMAA2166 growth inhibition – luminescence, BacTiterGlo, counter-screen for streptokinase expression inhibitor project, dose response (AID 1915); type: functional, organism-based;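 also: potency for reduction of bacterial viability or growth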
# [1] = target: T1, Nuclear receptor subfamily 0 group B member 1 (Homo sapiens, UniProt P51843); type: functional, cell-based;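 also: HEK293T cells transfected with SF-1 and DAX-1 plus StAR promoter luciferase reporter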
# T1 sequence (P51843 whole entry): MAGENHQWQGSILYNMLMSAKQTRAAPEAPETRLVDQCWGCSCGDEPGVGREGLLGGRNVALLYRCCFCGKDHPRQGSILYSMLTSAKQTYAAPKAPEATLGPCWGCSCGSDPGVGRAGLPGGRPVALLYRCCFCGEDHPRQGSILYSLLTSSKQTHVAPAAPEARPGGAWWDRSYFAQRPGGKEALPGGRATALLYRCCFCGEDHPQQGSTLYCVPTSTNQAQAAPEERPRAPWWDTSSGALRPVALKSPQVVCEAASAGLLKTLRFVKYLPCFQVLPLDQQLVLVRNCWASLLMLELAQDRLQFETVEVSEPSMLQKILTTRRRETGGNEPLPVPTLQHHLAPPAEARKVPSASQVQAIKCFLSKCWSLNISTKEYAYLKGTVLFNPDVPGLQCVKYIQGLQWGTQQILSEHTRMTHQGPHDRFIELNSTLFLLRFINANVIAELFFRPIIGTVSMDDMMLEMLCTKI
# [2] = target: G-protein coupled receptor 55 (Homo sapiens, UniProt Q9Y2T6); experiment: inhibition of LPI-stimulated GPR55 beta-arrestin translocation – imaging, U2OS, beta-arrestin-GFP, LPI agonist, primary screen (AID 2013); type: functional;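 also: antagonist potency measured as reduced agonist-driven arrestin aggregation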
# cells = type: functional, cell-based
# HeLa = experiment: ATP-based viability loss in HeLa cells – cell-based, CellTiter-Glo luminescence, cherry-pick samples, cytotoxicity control for MITF activator project, dose response (AID 540259); type: functional; settings: Homo sapiens
# [3] = system: Streptococcus sp. 'group A'; experiment: Streptococcus pyogenes SK(-)GAS viability under kanamycin – luminescence, BacTiterGlo, confirmation, counter-screen for streptokinase expression inhibitor project, dose response (AID 1900); type: functional, organism-based
# Streptokinase A = target: T2, Streptokinase A (Streptococcus pyogenes serotype M1, UniProt P10520); experiment: viability-normalized secreted streptokinase activity reduction – plasminogen activation absorbance, OD405, dose response (AID 1914); type: functional, Streptococcus pyogenes M1 GAS;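 also: secreted streptokinase activity via plasminogen activation per viability signal from cell pellet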
# T2 sequence (P10520 whole entry): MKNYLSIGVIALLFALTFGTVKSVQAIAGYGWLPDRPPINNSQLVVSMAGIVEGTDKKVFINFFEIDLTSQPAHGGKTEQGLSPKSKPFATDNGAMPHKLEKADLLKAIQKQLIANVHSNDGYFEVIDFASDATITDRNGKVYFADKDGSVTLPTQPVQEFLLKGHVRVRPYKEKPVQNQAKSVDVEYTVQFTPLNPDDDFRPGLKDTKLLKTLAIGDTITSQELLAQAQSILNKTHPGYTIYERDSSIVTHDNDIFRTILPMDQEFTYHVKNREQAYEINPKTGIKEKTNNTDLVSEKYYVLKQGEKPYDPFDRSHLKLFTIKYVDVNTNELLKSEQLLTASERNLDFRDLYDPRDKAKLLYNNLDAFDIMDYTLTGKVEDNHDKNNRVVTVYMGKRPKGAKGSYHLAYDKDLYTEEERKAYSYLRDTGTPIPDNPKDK
# Cytochrome P450 2C19 = Cytochrome P450 2C19 (Homo sapiens, UniProt P33261); experiment: Cytochrome panel assay with activity outcomes. Panel member name: p450-cyp2c19 Compounds with AC50 equal or less than 10 uM are considered active; type: functional; settings: read-out: AC50
# Trypsin = Trypsin (Sus scrofa, UniProt P00761); experiment: trypsin protease activity blockade – biochemical, quenched peptide fluorescence, cherry-pick, selectivity assay for Rce1 protease inhibitor project, dose response (AID 488789)
# CAAX prenyl protease 2 [4] = target: T3, CAAX prenyl protease 2 (Homo sapiens, UniProt Q9Y256); experiment: inhibition of Ras-converting CAAX protease Rce1 – biochemical, yeast membranes, quenched-peptide fluorescence, cherry-pick, dose response (AID 588849)
# T3 sequence (Q9Y256 whole entry): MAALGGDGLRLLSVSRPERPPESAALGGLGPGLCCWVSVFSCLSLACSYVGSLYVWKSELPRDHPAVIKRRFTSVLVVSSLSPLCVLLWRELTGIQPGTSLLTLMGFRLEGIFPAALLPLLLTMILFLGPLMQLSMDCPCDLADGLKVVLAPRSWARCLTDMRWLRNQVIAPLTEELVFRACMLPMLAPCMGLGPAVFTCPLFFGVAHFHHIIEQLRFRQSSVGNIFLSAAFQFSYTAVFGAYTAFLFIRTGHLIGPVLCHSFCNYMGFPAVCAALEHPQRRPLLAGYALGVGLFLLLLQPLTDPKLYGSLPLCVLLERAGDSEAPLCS
# Cytochrome P450 3A4 = Cytochrome P450 3A4 (Homo sapiens, UniProt P08684);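 also: CYP3A4 tested as one member of a cytochrome P450 panel screen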
# CAAX prenyl protease 2 [5] = target: CAAX prenyl protease 2 (Saccharomyces cerevisiae S288c, UniProt Q03530); type: biochemical
# Cytochrome P450 2C9 = Cytochrome P450 2C9 (Homo sapiens, UniProt P11712)
# [6] = target: T4, Mannose-6-phosphate isomerase (Homo sapiens, UniProt P34949); experiment: phosphomannose isomerase inhibition – biochemical, fluorescence intensity, confirmation (AID 1535)
# T4 sequence (P34949 whole entry): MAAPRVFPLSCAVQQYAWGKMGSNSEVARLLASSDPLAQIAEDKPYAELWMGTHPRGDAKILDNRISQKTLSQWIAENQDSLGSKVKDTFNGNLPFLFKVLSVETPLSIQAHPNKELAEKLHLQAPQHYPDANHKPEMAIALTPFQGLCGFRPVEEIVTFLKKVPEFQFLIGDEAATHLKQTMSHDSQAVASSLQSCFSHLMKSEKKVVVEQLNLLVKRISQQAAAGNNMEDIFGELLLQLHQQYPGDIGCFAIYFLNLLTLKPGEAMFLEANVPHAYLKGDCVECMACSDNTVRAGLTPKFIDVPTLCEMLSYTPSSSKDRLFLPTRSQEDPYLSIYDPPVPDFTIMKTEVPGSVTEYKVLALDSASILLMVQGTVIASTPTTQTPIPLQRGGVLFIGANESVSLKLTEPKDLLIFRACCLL
# [7] = Counterscreen for IDE inhibitors: Luminescence-based cell-based high throughput dose response assay to identify compounds that are cytotoxic to HEK cells. [Related pubchem assays: 434962 (Primary screen (IDE inhibitors in singlicate)), 449730 (Counterscreen (Cytotoxicity in triplicate)), 435028 (Confirmation (IDE inhibitors in triplicate)) …; type: functional; settings: HEK293
# [8] = target: DNA dC->dU-editing enzyme APOBEC-3A (Homo sapiens, UniProt P31941); experiment: A3A deaminase inhibition for selectivity – biochemical, dose response (AID 504722); type: functional
# [9] = target: DNA dC->dU-editing enzyme APOBEC-3G (Homo sapiens, UniProt Q9HC16); experiment: Dose Response confirmation of small molecule APOBEC3G DNA Deaminase Inhibitors via a fluorescence-based single-stranded DNA deaminase assay. [Related pubchem assays (depositor defined):AID493012, AID493028]; type: functional
# Large T antigen = Large T antigen (Simian virus 40, UniProt P03070); type: functional, Betapolyomavirus macacae;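 also: Confirmatory-stage PubChem screen for compounds that inhibit SV40 T antigen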
# [10] = target: T5, Phosphoethanolamine/phosphocholine phosphatase (Homo sapiens, UniProt Q8TCT1); experiment: SAR assay for compounds that inhibit PHOSPHO1. [Related pubchem assays (depositor defined):AID1545, AID1565, AID1574]
# T5 sequence (Q8TCT1 whole entry): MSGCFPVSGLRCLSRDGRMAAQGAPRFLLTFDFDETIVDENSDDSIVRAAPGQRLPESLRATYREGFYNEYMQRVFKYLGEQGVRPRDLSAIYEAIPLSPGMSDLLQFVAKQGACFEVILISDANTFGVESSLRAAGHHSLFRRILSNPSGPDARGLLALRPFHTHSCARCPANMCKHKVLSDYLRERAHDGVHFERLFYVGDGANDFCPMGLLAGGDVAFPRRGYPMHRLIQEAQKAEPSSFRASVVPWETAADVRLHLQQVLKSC
# Phosphomannomutase 2 = target: T6, Phosphomannomutase 2 (Homo sapiens, UniProt O15305); experiment: Counter screen SAR assay for PMM2 inhibitors via a fluorescence intensity assay. [Related pubchem assays (depositor defined):AID1545, AID1574]
# T6 sequence (O15305 whole entry): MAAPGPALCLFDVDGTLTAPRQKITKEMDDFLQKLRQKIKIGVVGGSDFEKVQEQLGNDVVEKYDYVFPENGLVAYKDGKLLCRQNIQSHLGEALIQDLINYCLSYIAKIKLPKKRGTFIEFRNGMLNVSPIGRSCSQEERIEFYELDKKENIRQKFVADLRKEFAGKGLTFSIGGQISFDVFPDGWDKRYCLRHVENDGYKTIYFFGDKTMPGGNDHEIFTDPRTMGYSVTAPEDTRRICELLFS
# Insulin-degrading enzyme = Insulin-degrading enzyme (Homo sapiens, UniProt P14735); experiment: Dose Response: Fluorescence polarization-based cell-based high throughput dose response assay for inhibitors of insulin-degrading enzyme (IDE). [Related pubchem assays: 434962 (Primary screen (IDE inhibitors in singlicate)), 449730 (Counterscreen (Cytotoxicity in triplicate)), 435028 (Confirmation (IDE inhibitors in triplicate)), 434984 (Summary …; type: functional
# [11] = target: Eukaryotic translation initiation factor 4E (Mus musculus, UniProt P63073); experiment: blockers of eIF4G binding by eIF4E – biochemical, TR-FRET, dose response (AID 855); type: functional;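 also: potency for disrupting eIF4E binding to eIF4GI seen as loss of FRET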
# Bcl-2-like protein 10 = Bcl-2-like protein 10 (Homo sapiens, UniProt Q9HD36); experiment: Bcl-B/TR3 peptide binding disruption – biochemical, fluorescence polarization, FITC-TR3 peptide, selectivity assay for Bfl-1 inhibitor project, primary screen (AID 748);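 also: fluorescence polarization from a fluorescein-labelled TR3 peptide binding purified Bcl-B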
# Bcl-2-like protein 10, sequence (Q9HD36 whole entry): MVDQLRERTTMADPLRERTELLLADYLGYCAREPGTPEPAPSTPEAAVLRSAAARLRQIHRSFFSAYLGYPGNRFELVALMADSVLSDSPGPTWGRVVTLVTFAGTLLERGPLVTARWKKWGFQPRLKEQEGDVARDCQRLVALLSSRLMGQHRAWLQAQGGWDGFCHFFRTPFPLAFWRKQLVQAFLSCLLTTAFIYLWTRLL
# G-protein coupled receptor 55, sequence (Q9Y2T6 whole entry): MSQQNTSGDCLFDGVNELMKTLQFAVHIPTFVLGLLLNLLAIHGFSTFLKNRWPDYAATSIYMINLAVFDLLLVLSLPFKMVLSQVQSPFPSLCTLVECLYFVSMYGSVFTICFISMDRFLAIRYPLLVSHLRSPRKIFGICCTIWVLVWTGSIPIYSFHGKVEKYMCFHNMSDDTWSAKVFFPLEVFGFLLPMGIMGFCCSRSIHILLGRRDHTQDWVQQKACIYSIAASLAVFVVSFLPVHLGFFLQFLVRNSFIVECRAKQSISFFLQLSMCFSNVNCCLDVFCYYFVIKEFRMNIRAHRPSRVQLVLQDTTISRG
# Cytochrome P450 2C19, sequence (P33261 whole entry): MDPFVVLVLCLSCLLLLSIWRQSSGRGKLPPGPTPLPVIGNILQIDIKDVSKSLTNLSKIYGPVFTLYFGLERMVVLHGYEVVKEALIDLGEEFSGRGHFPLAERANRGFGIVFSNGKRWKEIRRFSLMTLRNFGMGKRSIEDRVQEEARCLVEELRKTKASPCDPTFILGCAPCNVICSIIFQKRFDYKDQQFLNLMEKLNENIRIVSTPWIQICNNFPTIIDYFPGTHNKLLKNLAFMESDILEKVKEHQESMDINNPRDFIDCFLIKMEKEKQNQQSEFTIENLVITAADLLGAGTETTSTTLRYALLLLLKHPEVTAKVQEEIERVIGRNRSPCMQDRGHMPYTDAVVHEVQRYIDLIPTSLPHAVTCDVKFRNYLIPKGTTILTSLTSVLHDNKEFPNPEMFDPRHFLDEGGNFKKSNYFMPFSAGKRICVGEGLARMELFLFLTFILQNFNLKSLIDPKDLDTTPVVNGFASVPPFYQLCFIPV
# CAAX prenyl protease 2 (Saccharomyces cerevisiae S288c, UniProt Q03530), sequence (Q03530 whole entry): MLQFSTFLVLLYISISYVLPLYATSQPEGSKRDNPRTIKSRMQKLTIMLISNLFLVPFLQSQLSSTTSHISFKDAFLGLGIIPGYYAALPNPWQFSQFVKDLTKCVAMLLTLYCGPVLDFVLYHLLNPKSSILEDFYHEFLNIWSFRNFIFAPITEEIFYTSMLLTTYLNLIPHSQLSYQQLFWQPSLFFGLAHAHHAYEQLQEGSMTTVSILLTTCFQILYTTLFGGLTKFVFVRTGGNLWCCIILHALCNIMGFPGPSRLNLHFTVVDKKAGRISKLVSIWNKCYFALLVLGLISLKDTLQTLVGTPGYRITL
# Cytochrome P450 2C9, sequence (P11712 whole entry): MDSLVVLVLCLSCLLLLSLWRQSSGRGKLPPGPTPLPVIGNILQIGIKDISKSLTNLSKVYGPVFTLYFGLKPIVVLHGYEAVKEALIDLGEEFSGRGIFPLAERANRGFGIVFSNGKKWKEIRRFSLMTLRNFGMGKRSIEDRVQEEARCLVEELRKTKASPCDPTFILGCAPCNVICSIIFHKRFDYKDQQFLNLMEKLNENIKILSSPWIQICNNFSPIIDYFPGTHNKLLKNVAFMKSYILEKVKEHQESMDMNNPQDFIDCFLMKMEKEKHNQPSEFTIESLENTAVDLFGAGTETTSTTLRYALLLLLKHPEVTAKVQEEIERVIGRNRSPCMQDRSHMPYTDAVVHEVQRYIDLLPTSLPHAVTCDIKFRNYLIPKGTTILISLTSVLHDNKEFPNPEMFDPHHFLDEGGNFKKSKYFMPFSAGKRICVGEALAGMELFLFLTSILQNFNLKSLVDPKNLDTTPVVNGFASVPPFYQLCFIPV
# Cytochrome P450 3A4, sequence (P08684 whole entry): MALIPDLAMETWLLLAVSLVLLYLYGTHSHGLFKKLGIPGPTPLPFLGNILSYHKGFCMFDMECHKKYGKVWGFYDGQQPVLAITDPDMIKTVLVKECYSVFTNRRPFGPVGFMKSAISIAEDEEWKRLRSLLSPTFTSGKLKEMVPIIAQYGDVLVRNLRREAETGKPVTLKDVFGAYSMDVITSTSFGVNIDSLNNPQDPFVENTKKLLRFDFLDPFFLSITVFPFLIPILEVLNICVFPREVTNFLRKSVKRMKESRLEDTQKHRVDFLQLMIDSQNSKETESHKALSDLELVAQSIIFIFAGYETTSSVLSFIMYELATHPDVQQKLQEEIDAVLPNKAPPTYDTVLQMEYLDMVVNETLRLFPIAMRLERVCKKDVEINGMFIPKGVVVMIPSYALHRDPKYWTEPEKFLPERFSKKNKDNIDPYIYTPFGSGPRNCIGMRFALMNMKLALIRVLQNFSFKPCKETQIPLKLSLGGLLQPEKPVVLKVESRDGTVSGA
# DNA dC->dU-editing enzyme APOBEC-3A, sequence (P31941 whole entry): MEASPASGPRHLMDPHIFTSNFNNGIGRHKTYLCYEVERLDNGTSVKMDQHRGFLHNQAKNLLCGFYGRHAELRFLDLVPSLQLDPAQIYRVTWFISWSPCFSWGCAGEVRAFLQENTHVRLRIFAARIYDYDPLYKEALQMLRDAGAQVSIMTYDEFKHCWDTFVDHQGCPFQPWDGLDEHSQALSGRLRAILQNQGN
# Trypsin, sequence (P00761 whole entry): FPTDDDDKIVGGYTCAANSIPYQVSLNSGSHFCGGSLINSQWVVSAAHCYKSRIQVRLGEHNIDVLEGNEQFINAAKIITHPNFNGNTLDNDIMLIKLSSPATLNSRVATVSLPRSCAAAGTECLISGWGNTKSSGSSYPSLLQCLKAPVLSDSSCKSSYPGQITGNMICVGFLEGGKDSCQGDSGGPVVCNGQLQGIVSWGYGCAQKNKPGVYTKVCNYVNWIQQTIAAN
# Eukaryotic translation initiation factor 4E, sequence (P63073 whole entry): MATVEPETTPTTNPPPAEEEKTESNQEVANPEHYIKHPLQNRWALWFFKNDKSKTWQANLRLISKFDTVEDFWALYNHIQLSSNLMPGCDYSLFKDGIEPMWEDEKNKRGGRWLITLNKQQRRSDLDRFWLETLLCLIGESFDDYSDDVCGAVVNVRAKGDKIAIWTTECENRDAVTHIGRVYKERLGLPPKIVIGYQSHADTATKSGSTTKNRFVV
# DNA dC->dU-editing enzyme APOBEC-3G, sequence (Q9HC16 whole entry): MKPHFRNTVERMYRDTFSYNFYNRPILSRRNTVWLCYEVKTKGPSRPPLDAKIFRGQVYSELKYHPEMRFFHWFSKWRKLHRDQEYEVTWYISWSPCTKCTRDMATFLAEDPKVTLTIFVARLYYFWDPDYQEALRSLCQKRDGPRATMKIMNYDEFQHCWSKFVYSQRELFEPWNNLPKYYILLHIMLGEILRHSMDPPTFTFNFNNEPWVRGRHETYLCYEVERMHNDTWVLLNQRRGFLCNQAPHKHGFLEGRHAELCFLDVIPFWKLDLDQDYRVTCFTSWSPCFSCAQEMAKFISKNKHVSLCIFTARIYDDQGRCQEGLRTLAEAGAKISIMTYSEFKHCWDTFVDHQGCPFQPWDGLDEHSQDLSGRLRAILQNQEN
# Insulin-degrading enzyme, sequence (P14735 whole entry): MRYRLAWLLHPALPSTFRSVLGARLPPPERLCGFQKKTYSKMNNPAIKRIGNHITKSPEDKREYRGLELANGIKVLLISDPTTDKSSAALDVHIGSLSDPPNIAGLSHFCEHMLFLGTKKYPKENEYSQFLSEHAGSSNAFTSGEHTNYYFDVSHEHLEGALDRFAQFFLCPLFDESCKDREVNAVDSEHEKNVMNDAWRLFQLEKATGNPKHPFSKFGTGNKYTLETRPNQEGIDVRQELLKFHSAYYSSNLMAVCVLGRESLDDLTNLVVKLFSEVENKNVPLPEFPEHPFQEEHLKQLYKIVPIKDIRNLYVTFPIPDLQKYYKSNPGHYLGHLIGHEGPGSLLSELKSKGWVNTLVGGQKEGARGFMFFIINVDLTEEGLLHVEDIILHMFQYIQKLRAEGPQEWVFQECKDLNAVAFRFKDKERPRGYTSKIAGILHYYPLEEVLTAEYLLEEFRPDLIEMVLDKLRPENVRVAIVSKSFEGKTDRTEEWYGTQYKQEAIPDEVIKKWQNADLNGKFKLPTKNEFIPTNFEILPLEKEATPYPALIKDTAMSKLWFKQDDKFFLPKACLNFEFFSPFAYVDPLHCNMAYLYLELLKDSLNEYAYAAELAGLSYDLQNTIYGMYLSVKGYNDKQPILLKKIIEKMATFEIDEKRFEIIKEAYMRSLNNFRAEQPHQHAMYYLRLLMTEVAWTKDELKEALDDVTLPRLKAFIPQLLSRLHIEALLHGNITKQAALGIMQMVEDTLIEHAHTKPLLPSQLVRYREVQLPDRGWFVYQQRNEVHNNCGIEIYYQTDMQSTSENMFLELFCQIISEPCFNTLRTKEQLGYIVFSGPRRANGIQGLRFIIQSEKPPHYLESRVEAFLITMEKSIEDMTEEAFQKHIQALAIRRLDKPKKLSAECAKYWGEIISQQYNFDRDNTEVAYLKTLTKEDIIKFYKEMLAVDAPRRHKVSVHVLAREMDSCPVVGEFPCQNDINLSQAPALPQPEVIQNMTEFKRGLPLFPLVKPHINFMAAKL
structure (smiles),measurement,setting,value
c1ccc(-c2nc(-c3nccc4ccccc34)oc2-c2ccccc2)cc1,EC50,Streptococcus,> 150 µM (not active)
same,IC50,[1],> 67.5 µM (inactive)
same,IC50,[2],3.48 µM (active)
same,IC50,cells,> 67.5 µM (inactive)
same,AC50,HeLa,132 µM (active)
same,EC50,[3],> 150 µM (not active)
same,EC50,Streptokinase A,5.23 µM (active)
COc1ccc(N(CC(=O)Nc2nc3ccc(C)cc3s2)S(=O)(=O)c2c(C)nn(C)c2C)cc1,IC50,[2],2.04 µM (active)
Cc1cccc(Nc2ccccc2C(=O)OCC(=O)N(C)C2CCS(=O)(=O)C2)c1C (configuration not stated),AC50,Cytochrome P450 2C19,28.2 µM (inconclusive)
same,AC50,Trypsin,15.5 µM (active)
same,AC50,CAAX prenyl protease 2 [4],0.914 µM (active)
same,AC50,Cytochrome P450 3A4,28.2 µM (inconclusive)
same,AC50,CAAX prenyl protease 2 [5],3.45 µM (active)
same,AC50,Cytochrome P450 2C9,39.8 µM (inconclusive)
O=c1c2ccccc2sn1-c1cc(S(=O)(=O)N2CCOCC2)ccc1N1CCOCC1,IC50,[6],2.6 µM (active)
same,IC50,[7],11 µM (not active)
same,IC50,[8],> 100 µM (inactive)
same,EC50,Streptococcus,> 150 µM (not active)
same,IC50,[9],14 µM (active)
same,IC50,Large T antigen,13.2 µM (active)
same,EC50,[3],10.2 µM (active)
same,IC50,[10],1.27 µM (inactive)
same,IC50,Phosphomannomutase 2,9.87 µM (active)
same,IC50,Insulin-degrading enzyme,1.44 µM (active)
same,IC50,[11],5.36 µM (active)
same,EC50,Streptokinase A,> 150 µM (not active)
COc1ccc(NC(=O)C2CCN(c3nc(C)nc4c3CCC4)CC2)cc1,IC50,Bcl-2-like protein 10,33.8 µM (active)
